In the NIST ThermoML archive (doi:10.1007/s10765-005-8590-7):
Numbers after ± are expanded uncertainties.

Legend:
[1] = Fluid (supercritical or subcritical phases), Constant-volume piezometry
[2] = xn = mol fraction of the nth substance listed; settings: Fluid (supercritical or subcritical phases), Constant-volume piezometry, x2 = 0

Question: With `O` [water] as the molecule, how does the mass density ([1]; 270.15 K, 4074.2 kPa) read?
Answer: 1001.55 ± 0.22 kg/m3

Question: And the mass density ([1]; 271.17 K, 3818.6 kPa)?
Answer: 1001.52 ± 0.22 kg/m3

Question: What about the mass density ([1]; 272.04 K, 5219 kPa) of the same molecule?
Answer: 1002.3 ± 0.22 kg/m3

Question: And the mass density ([1]; 272.13 K, 3596.6 kPa)?
Answer: 1001.49 ± 0.22 kg/m3

Question: And the mass density ([1]; 273.1 K, 3402.1 kPa)?
Answer: 1001.46 ± 0.21 kg/m3

Question: And the mass density ([1]; 273.15 K, 5009.6 kPa)?
Answer: 1002.26 ± 0.22 kg/m3

Question: And the mass density ([1]; 274.12 K, 13437 kPa)?
Answer: 1006.52 ± 0.25 kg/m3

Question: And the mass density ([1]; 274.15 K, 3220.1 kPa)?
Answer: 1001.42 ± 0.21 kg/m3

Question: What about the mass density ([1]; 274.15 K, 4843.5 kPa) of the same molecule?
Answer: 1002.23 ± 0.22 kg/m3

Question: And the mass density ([1]; 275.15 K, 4716.5 kPa)?
Answer: 1002.19 ± 0.22 kg/m3

Question: What about the mass density ([1]; 275.16 K, 3074.5 kPa) of the same molecule?
Answer: 1001.39 ± 0.21 kg/m3

Question: What about the mass density ([1]; 275.18 K, 13355 kPa) of the same molecule?
Answer: 1006.48 ± 0.25 kg/m3

Question: What about the mass density ([1]; 276.12 K, 4614.4 kPa) of the same molecule?
Answer: 1002.16 ± 0.22 kg/m3

Question: And the mass density ([1]; 276.16 K, 13306 kPa)?
Answer: 1006.44 ± 0.25 kg/m3

Question: And the mass density ([1]; 276.17 K, 2960.4 kPa)?
Answer: 1001.35 ± 0.21 kg/m3

Question: And the mass density ([1]; 276.18 K, 13305 kPa)?
Answer: 1006.44 ± 0.25 kg/m3

Question: And the mass density ([1]; 277.15 K, 2875.8 kPa)?
Answer: 1001.32 ± 0.21 kg/m3

Question: And the mass density ([1]; 277.15 K, 4535.3 kPa)?
Answer: 1002.12 ± 0.22 kg/m3

Question: And the mass density ([1]; 277.16 K, 13282 kPa)?
Answer: 1006.4 ± 0.25 kg/m3

Question: What about the mass density ([1]; 278.13 K, 4490.8 kPa) of the same molecule?
Answer: 1002.08 ± 0.22 kg/m3

Question: And the mass density ([1]; 278.16 K, 2819.8 kPa)?
Answer: 1001.27 ± 0.21 kg/m3

Question: What about the mass density ([1]; 278.16 K, 13288 kPa) of the same molecule?
Answer: 1006.35 ± 0.25 kg/m3

Question: And the mass density ([1]; 279.1 K, 4468.4 kPa)?
Answer: 1002.03 ± 0.22 kg/m3

Question: And the mass density ([1]; 279.16 K, 2790.3 kPa)?
Answer: 1001.23 ± 0.21 kg/m3

Question: What about the mass density ([1]; 279.17 K, 13328 kPa) of the same molecule?
Answer: 1006.3 ± 0.25 kg/m3

Question: And the mass density ([1]; 280.1 K, 4469.1 kPa)?
Answer: 1001.99 ± 0.22 kg/m3

Question: What about the mass density ([1]; 280.17 K, 13374 kPa) of the same molecule?
Answer: 1006.26 ± 0.25 kg/m3

Question: What about the mass density ([1]; 281.08 K, 2807.6 kPa) of the same molecule?
Answer: 1001.14 ± 0.22 kg/m3

Question: What about the mass density ([1]; 281.14 K, 4509 kPa) of the same molecule?
Answer: 1001.94 ± 0.22 kg/m3

Question: And the mass density ([1]; 281.17 K, 13456 kPa)?
Answer: 1006.21 ± 0.25 kg/m3

Question: What about the mass density ([1]; 282.13 K, 13562 kPa) of the same molecule?
Answer: 1006.16 ± 0.25 kg/m3

Question: And the mass density ([1]; 283.15 K, 4649.5 kPa)?
Answer: 1001.84 ± 0.22 kg/m3

Question: And the mass density ([1]; 283.18 K, 13665 kPa)?
Answer: 1006.11 ± 0.25 kg/m3

Question: What about the mass density ([1]; 285.14 K, 13994 kPa) of the same molecule?
Answer: 1006.01 ± 0.26 kg/m3

Question: And the mass density ([1]; 286.05 K, 5038.7 kPa)?
Answer: 1001.69 ± 0.22 kg/m3

Question: What about the mass density ([1]; 288.15 K, 14714 kPa) of the same molecule?
Answer: 1005.84 ± 0.26 kg/m3

Question: And the mass density ([1]; 289.17 K, 5677.6 kPa)?
Answer: 1001.51 ± 0.23 kg/m3

Question: What about the mass density ([1]; 292.12 K, 6505.6 kPa) of the same molecule?
Answer: 1001.33 ± 0.23 kg/m3

Question: And the mass density ([1]; 296.13 K, 7938.8 kPa)?
Answer: 1001.06 ± 0.24 kg/m3

Question: What about the mass density ([1]; 300.13 K, 9714.8 kPa) of the same molecule?
Answer: 1000.78 ± 0.24 kg/m3

Question: What about the mass density ([1]; 305.19 K, 12424 kPa) of the same molecule?
Answer: 1000.41 ± 0.26 kg/m3

Question: What about the mass density ([1]; 308.16 K, 14234 kPa) of the same molecule?
Answer: 1000.19 ± 0.27 kg/m3

Question: For `O` [water] + N, which mass density ([2]; 270.15 K, 4074.2 kPa) is on record?
Answer: 1001.55 ± 0.22 kg/m3

Question: What about the mass density ([2]; 271.17 K, 3818.6 kPa) of the same molecule?
Answer: 1001.52 ± 0.22 kg/m3

Question: And the mass density ([2]; 272.04 K, 5219 kPa)?
Answer: 1002.3 ± 0.22 kg/m3

Question: And the mass density ([2]; 272.13 K, 3596.6 kPa)?
Answer: 1001.49 ± 0.22 kg/m3

Question: What about the mass density ([2]; 273.1 K, 3402.1 kPa) of the same molecule?
Answer: 1001.46 ± 0.21 kg/m3

Question: And the mass density ([2]; 273.15 K, 5009.6 kPa)?
Answer: 1002.26 ± 0.22 kg/m3

Question: What about the mass density ([2]; 274.12 K, 13437 kPa) of the same molecule?
Answer: 1006.52 ± 0.25 kg/m3

Question: What about the mass density ([2]; 274.15 K, 3220.1 kPa) of the same molecule?
Answer: 1001.42 ± 0.21 kg/m3

Question: And the mass density ([2]; 274.15 K, 4843.5 kPa)?
Answer: 1002.23 ± 0.22 kg/m3

Question: And the mass density ([2]; 275.15 K, 4716.5 kPa)?
Answer: 1002.19 ± 0.22 kg/m3

Question: What about the mass density ([2]; 275.16 K, 3074.5 kPa) of the same molecule?
Answer: 1001.39 ± 0.21 kg/m3

Question: And the mass density ([2]; 275.18 K, 13355 kPa)?
Answer: 1006.48 ± 0.25 kg/m3

Question: And the mass density ([2]; 276.12 K, 4614.4 kPa)?
Answer: 1002.16 ± 0.22 kg/m3

Question: And the mass density ([2]; 276.16 K, 13306 kPa)?
Answer: 1006.44 ± 0.25 kg/m3

Question: What about the mass density ([2]; 276.17 K, 2960.4 kPa) of the same molecule?
Answer: 1001.35 ± 0.21 kg/m3

Question: What about the mass density ([2]; 276.18 K, 13305 kPa) of the same molecule?
Answer: 1006.44 ± 0.25 kg/m3

Question: And the mass density ([2]; 277.15 K, 2875.8 kPa)?
Answer: 1001.32 ± 0.21 kg/m3

Question: And the mass density ([2]; 277.15 K, 4535.3 kPa)?
Answer: 1002.12 ± 0.22 kg/m3

Question: And the mass density ([2]; 277.16 K, 13282 kPa)?
Answer: 1006.4 ± 0.25 kg/m3

Question: What about the mass density ([2]; 278.13 K, 4490.8 kPa) of the same molecule?
Answer: 1002.08 ± 0.22 kg/m3

Question: What about the mass density ([2]; 278.16 K, 2819.8 kPa) of the same molecule?
Answer: 1001.27 ± 0.21 kg/m3

Question: What about the mass density ([2]; 278.16 K, 13288 kPa) of the same molecule?
Answer: 1006.35 ± 0.25 kg/m3

Question: And the mass density ([2]; 279.1 K, 4468.4 kPa)?
Answer: 1002.03 ± 0.22 kg/m3

Question: What about the mass density ([2]; 279.16 K, 2790.3 kPa) of the same molecule?
Answer: 1001.23 ± 0.21 kg/m3

Question: What about the mass density ([2]; 279.17 K, 13328 kPa) of the same molecule?
Answer: 1006.3 ± 0.25 kg/m3

Question: What about the mass density ([2]; 280.1 K, 4469.1 kPa) of the same molecule?
Answer: 1001.99 ± 0.22 kg/m3

Question: And the mass density ([2]; 280.17 K, 13374 kPa)?
Answer: 1006.26 ± 0.25 kg/m3

Question: And the mass density ([2]; 281.08 K, 2807.6 kPa)?
Answer: 1001.14 ± 0.22 kg/m3

Question: And the mass density ([2]; 281.14 K, 4509 kPa)?
Answer: 1001.94 ± 0.22 kg/m3

Question: And the mass density ([2]; 281.17 K, 13456 kPa)?
Answer: 1006.21 ± 0.25 kg/m3

Question: What about the mass density ([2]; 282.13 K, 13562 kPa) of the same molecule?
Answer: 1006.16 ± 0.25 kg/m3

Question: What about the mass density ([2]; 283.15 K, 4649.5 kPa) of the same molecule?
Answer: 1001.84 ± 0.22 kg/m3

Question: And the mass density ([2]; 283.18 K, 13665 kPa)?
Answer: 1006.11 ± 0.25 kg/m3

Question: What about the mass density ([2]; 285.14 K, 13994 kPa) of the same molecule?
Answer: 1006.01 ± 0.26 kg/m3

Question: What about the mass density ([2]; 286.05 K, 5038.7 kPa) of the same molecule?
Answer: 1001.69 ± 0.22 kg/m3

Question: And the mass density ([2]; 288.15 K, 14714 kPa)?
Answer: 1005.84 ± 0.26 kg/m3

Question: And the mass density ([2]; 289.17 K, 5677.6 kPa)?
Answer: 1001.51 ± 0.23 kg/m3

Question: And the mass density ([2]; 292.12 K, 6505.6 kPa)?
Answer: 1001.33 ± 0.23 kg/m3

Question: What about the mass density ([2]; 296.13 K, 7938.8 kPa) of the same molecule?
Answer: 1001.06 ± 0.24 kg/m3

Question: What about the mass density ([2]; 300.13 K, 9714.8 kPa) of the same molecule?
Answer: 1000.78 ± 0.24 kg/m3

Question: And the mass density ([2]; 305.19 K, 12424 kPa)?
Answer: 1000.41 ± 0.26 kg/m3

Question: And the mass density ([2]; 308.16 K, 14234 kPa)?
Answer: 1000.19 ± 0.27 kg/m3
